Reference: patent publication EP0306300B1, “Pyrrolo(1,2-a)imidazole and imidazo(1,2-a)pyridine derivatives and their use as 5-lipoxygenase pathway inhibitors” (SMITHKLINE BEECHAM CORPORATION, priority 1987, dated 1989)
Read-outs that look alike come from different tables or passages of the source.

Legend:
[1] = tested on: arachidonic acid-induced edema in mice; assay: Arachidonic acid-induced mouse ear inflammation (ear swelling); format: in vivo, male Balb/c mice; conditions: po; for ED50: mouse, read-out: AAEE(MOUSE ED50 mg/kg (po))
Description: In the tests used to determine activity as 5-lipoxygenase pathway inhibitors, male Balb/c mice (20-28 g), were used. All mice were obtained from Charles River Breeding Laboratories, Kingston, N.Y. Within a single experiment, mice were age matched.
Reagents were employed as follows: Compounds of Formula (I) were each used as the free base. The compounds were homogenized in 0.5% tragacanth. Compounds were administered by […] at the indicated dose in a final volume of 10 ml/kg.
Arachidonic acid in acetone (2 mg/20 »l) was applied to the inner surface of the left ear. The thickness of both ears was then measured with a dial micrometer one hour after treatment, and the data were expressed as the change in thickness (10⁻³ cm) between treated and untreated ears.
Test compounds were given orally in acid/saline at the times indicated in the text prior to the topical application of arachidonic acid.
Dermatol., 82, 367-371 (1984)].

5-Lipoxygenase = biological target: T1, 5-Lipoxygenase (Rattus norvegicus, UniProt P12527); assay: Assay of 5-lipoxygenase activity in RBL-1 high speed supernatant; format: biochemical; conditions: read-out: 5-LO IC50
T1 construct: the supernatant was centrifuged at 100,000 x g for 60 min; host or cells: RBL-1 cells (soluble cell extract, high-speed supernatant)
T1 sequence (P12527 1-673): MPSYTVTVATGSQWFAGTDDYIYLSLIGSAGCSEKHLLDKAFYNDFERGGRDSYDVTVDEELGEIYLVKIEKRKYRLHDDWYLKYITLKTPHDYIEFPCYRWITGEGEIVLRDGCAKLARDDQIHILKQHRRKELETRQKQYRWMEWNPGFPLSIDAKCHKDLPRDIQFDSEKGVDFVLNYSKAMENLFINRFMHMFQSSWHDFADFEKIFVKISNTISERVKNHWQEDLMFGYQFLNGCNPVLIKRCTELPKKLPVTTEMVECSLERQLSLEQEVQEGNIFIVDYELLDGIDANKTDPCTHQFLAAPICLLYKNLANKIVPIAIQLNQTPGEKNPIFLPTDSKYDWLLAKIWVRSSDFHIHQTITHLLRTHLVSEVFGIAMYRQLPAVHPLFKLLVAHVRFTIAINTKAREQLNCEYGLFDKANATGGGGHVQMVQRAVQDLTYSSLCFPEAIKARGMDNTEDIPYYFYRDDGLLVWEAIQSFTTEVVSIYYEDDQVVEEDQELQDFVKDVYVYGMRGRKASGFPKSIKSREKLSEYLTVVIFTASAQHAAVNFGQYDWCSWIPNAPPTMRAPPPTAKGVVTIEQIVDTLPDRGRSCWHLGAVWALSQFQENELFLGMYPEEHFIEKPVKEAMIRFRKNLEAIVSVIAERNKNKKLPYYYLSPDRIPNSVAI
Description: For in vitro experiments, compounds were dissolved at appropriate concentrations in ethanol (final concentration 1.0%) and then diluted to final concentrations using the buffers indicated in the text.
The activities of these enzymes in extracts of RBL-1 cells were assayed using the method of Jakschik and Lee, Nature, 287, 51-52 (1980). RBL-1 cells were obtained from the American Type Culture Collection (#CRL 1378) and were grown at 37°C (5% CO₂ in air) in spinner culture in MEM supplemented with 10% heat inactivated fetal calf serum. Harvested cells were washed with 50 mM sodium phosphate buffer, pH 7.0, containing 1 mM EDTA and 0.1% gelatin, resuspended in fresh buffer (5 x 10⁷ cells/ml) and disrupted by nitrogen cavitation using the Parr bomb at 750 psi for 10 min. The broken cell extract was then centrifuged at 10,000 x g for 20 minutes (min) and the supernatant was centrifuged at 100,000 x g for 60 min. Aliquots (0.25 mls) of the supernatant were preincubated with or without drugs for 10 min, after which 10 ul CaCl₂ (2 mM) was added and the reaction was initiated with 2.5 »l of 2.5 mM arachidonic acid-1-¹⁴C (final concentration was 25 »M; specific activity 20,000 dpm/nmole). After incubation for 5 minutes at 37°C, the reaction was terminated by addition of 2 volumes (0.5 ml) ice cold acetone and the sample was allowed to deproteinize on ice for 10 minutes prior to centrifugation at 1,000 x g for 10 minutes. The deproteinized supernatant was adjusted to pH 3.5 with 2N formic acid and extracted with 2 volumes of ice cold ethyl acetate. The extracted samples were dried under argon, redissolved in ethyl acetate and applied to Whatman LK5D thin layer chromatography (TLC) plates which were developed using the A-9 solvent system [organic phase of ethyl acetate: […]:acetic acid: water (110:50:20:10)] described by Hamberg and Samuelsson, J. Biol. Chem., 241, 257-263 (1966). Arachidonic acid, 5-HETE, LTB₄ and PGD₂ were quantified with a Berthold LB 2832 autoscanner.
Under these conditions, only the 5-lipoxygenase pathway metabolites were detectable. The 5-HETE and di-HETEs were formed at a linear rate, and […] amounts of the arachidonic acid-1-¹⁴C substrate were utilized.

[2] = Log D determination by high pressure liquid chromatography; format: physicochemical; conditions: hplc ods, mobile phase MeOH:H2O, pH 7.4, read-out: (Log D) (Lipophilicity)
Description: The procedure used to determine the log D's listed on Table VI was as follows. A 20 »l sample was injected into a Shandon Hypersil ODS, 5» (100 mm x 4.6 mm ID) column and was eluted using a mobile phase of […] MeOH:H₂O (The aqueous portion was .01 M in KH₂PO₄ and adjusted to pH 7.4 with KOH after mixing the MeOH), at a flow rate of 2 ml per minute. Eluting peaks were detected by UV absorbance at […]. All samples were made up at 0.1 mg/ml. (Retentions were identical at 0.01 mg/ml.)
The data was analyzed by determining the regression line corresponding to the log k′ vs. literature log P of the reference standards.
The reference standards and their literature log P's included NaNO₂, 0.0; acetanalide, 1.16; acetophenone, 1.66; anisole, 2.08; chlorobenzene, 2.84; benzophenone, 3.18; anthracene, 4.45; and pentachlorobenzene, 5.12.

[3] = Cytochrome P-450 inhibition (ethoxycoumarin-O-deethylase activity, phenobarbital-induced microsomes); conditions: rat, liver microsomes
[4] = LTB4 production by RBL-1 high speed supernatant

SMILES: CSc1ccc(-c2nc3n(c2-c2ccncc2)CCC3)cc1 [Compound 1, 2-(4-Methylthiophenyl)-3-(4-pyridyl)-6,7-dihydro-[5H]-pyrrolo[1,2-a]imidazole]
- ED50 [1]: 20 mg/kg
- IC50 (5-Lipoxygenase; [4]): 20 µM
- chromatographic logD [2]: 2.68
- IC50 [3]: 43.7 µM

SMILES: C[S+]([O-])c1ccc(-c2nc3n(c2-c2ccncc2)CCC3)cc1 (stereo not shown) [Compound 2, 2-(4-Methylsulfinylphenyl)-3-(4-pyridyl)-6,7-dihydro-[5H]-pyrrolo[1,2-a]imidazole]
- inhibition at 50 mg/kg ([1]; Mus musculus, 1 h, 50 mg/kg p.o., ear thickness one hour after 2 mg arachidonic acid): 44%
- ED50 [1]: 44 mg/kg
- IC50 (5-Lipoxygenase; [4]): > 100 µM
- IC50 (5-Lipoxygenase; total HETE and Di-HETE production by RBL-1 high speed supernatant): > 100 µM
- chromatographic logD [2]: 0.85
- IC50 [3]: 866 µM
